Assay results from patent publication US20220409620A1, “REDUCING IMMUNOGENICITY TO PEGLOTICASE” (Horizon Pharma Rheumatology LLC, priority 2016, published 2022).
Where two headings read alike, the source gives them in different places.

Legend:
[1] = MTX polyglutamates 1 to 5 in red blood cells, MIRROR OL; type: in vivo, human; conditions: during the treatment course; FIG. 2
Protocol: Blood samples were collected prior to pegloticase infusion on Day 1 and at the Weeks 4, 8, 22 and 36 Visits or at Day 1 and weeks 14, 24, and 36 visits during the Pegloticase+IMM for MTX Polyglutamate analysis for the open-label and randomized studies, respectively.
Methods: In the MIRROR OL trial, MTX (15 mg/week) was given orally 4 weeks prior to the first pegloticase dose and continued weekly, in combination with pegloticase 8 mg given intravenously every 2 weeks, for a treatment duration of up to 52 weeks. Pre-infusion samples were collected to measure MTX-PGs 1 to 5 in red blood cells at day 1, week 4, 8, 22, 24 and 36. […] Pegloticase concentrations in serum was measured using a validated enzymatic/fluorescence assay. The limit of quantification is 0.6 μg/mL. Anti-pegloticase/PEG IgG antibodies (ADA) were measured using a validated enzyme linked immunosorbent assay (ELISA). The analysis of MTX Polyglutamates was conducted by Exagen. The impact of MTX on pegloticase PK was evaluated by two methods: (1) Comparing pegloticase exposures (median Cmax and Cmin across visits) with MTX from the MIRROR OL trial to the observed levels in historical monotherapy Phase 3 studies (C0405 and C0406) (Lipsky et al., Arthritis Res Ther 16(2), 2014; Sundy et al., JAMA 306(7), 2011). […]

[2] = system: adult patients with uncontrolled gout
From the text: As used herein, an “adverse event” or “AE” refers to any untoward medical occurrence associated with the use of a drug in humans, whether it is considered drug-related or not. An AE or suspected adverse reaction is considered a “serious adverse event” or “SAE” if, in the view of either the Investigator or Sponsor, it results in any of the following outcomes: (1) Death, (2) Life-threatening: an AE is considered “life-threatening” if, in the view of either the Investigator or Sponsor, its occurrence places the subject or subject at immediate risk of death. […] (5) A congenital anomaly/birth defect; (6) Important medical events that may not result in death, be life-threatening, or require hospitalization may be considered serious when, based upon appropriate medical judgment, they may jeopardize the patient or subject and may require medical or surgical intervention to prevent one of the outcomes listed in this definition.
Safety Variables: Safety was assessed via AE and concomitant medication use monitoring, physical examinations, vital signs, clinical safety laboratory evaluations (hematology, chemistry, urine uric acid:creatinine ratio), pregnancy testing (if applicable), electrocardiograms (ECGs), and AEs of special interest (i.e., IRs, anaphylaxis, gout flares, and cardiovascular events).
AEs of special interest may include IRs, anaphylaxis, gout flares, and cardiovascular events.
Severity in accordance with the disclosure is reported according to the following: Grade 1 (Mild)—No interference with daily activity. Grade 2 (Moderate)—Some interference with daily activity but medical intervention not required (e.g., doctor visit and/or medication); over the counter medicine permitted. Grade 3 (Severe)—Prevents daily activity and requires medical intervention (e.g., doctor visit and/or medication). Grade 4 (Potentially Life-threatening)—Emergency room visit or hospitalization.
An AE was defined as any untoward event, whether or not it was considered related to the use of pegloticase or MTX. Any worsening (i.e., any clinically significant adverse change in frequency or intensity) of a preexisting condition which was temporally associated with the use of pegloticase or MTX was also considered an AE. Abnormal laboratory values or test results constitute AEs only if they induce clinical signs or symptoms or require therapy, and were recorded on the AE CRF under the signs, symptoms or were associated with diagnoses associated with them. Screening conditions were not considered AE; however, worsening of a preexisting condition may be considered an AE. AEs were collected starting at the baseline, Visit 1.
TEAEs during the Pegloticase+IMM Period were defined as events that occur after the start of the first pegloticase infusion through 30 days after the last dose of pegloticase and/or MTX or placebo for MTX (whichever was later). TEAEs that occur during the MTX Tolerability Assessment Period prior to randomization (Weeks −6 to −4) was summarized separately for the MTX population. […] AEs that occur more than 30 days after the last dose of pegloticase and/or MTX or placebo for MTX through the 6-month follow-up visit was also summarized.
The number and percentage of subjects experiencing AEs were summarized by system organ class and preferred term. Summaries by maximum severity and relationship to MTX and/or pegloticase was also provided. SAEs and AEs leading to discontinuation of MTX and/or pegloticase were presented by system organ class and preferred term.

[3] = Methotrexate Run-in Period, ITT (N = 15)
[4] = Methotrexate Run-in Period, mITT (N = 14)

CN(Cc1cnc2nc(N)nc(N)c2n1)c1ccc(C(=O)N[C@@H](CCC(=O)O)C(=O)O)cc1 [MTX, methotrexate]
2: Infections And Infestations, Total Events [2, 4] | Infections And Infestations, Total Events ([2]; human, in vivo, 4 weeks)
5.5 Events/PY of MTX: Gastrointestinal Disorders, Incidence Rate [2, 3] | Gout, Incidence Rate [2, 3] | Metabolism And Nutrition Disorders, Incidence Rate [2, 3]
(13.3) %: Infections And Infestations, % [2] | Abdominal Discomfort, % [2, 3] | Nausea, % [2, 3]
6.0 Events/PY of MTX: Gastrointestinal Disorders, Incidence Rate [2, 4] | Gout, Incidence Rate [2, 4] | Metabolism And Nutrition Disorders, Incidence Rate [2, 4]
(14.3) %: Abdominal Discomfort, % [2, 4] | Infections And Infestations, % [2, 4] | Nausea, % [2, 4]
(66.7) %: Any TEAEs, % [2, 3]
(33.3) %: Gastrointestinal Disorders, % [2, 3] | Gout, % [2, 3] | Metabolism And Nutrition Disorders, % [2, 3]
maintained: Concentrations of MTX-PGs [1]
0.9 Events/PY of MTX: Chronic Sinusitis, Incidence Rate [2, 3] | Cough, Incidence Rate [2, 3] | Dental Caries, Incidence Rate [2, 3] | Diarrhoea, Incidence Rate [2, 3] | Dry Eye, Incidence Rate [2, 3] | Eye Disorders, Incidence Rate [2, 3] | Headache, Incidence Rate [2, 3] | Leukopenia, Incidence Rate [2, 3] | Nasopharyngitis, Incidence Rate [2, 3] | Nervous System Disorders, Incidence Rate [2, 3] | Neutropenia, Incidence Rate [2, 3] | Pruritus, Incidence Rate [2, 3] | Respiratory, Thoracic And Mediastinal Disorders, Incidence Rate [2, 3] | Skin And Subcutaneous Tissue Disorders, Incidence Rate [2, 3]
(35.7) %: Gastrointestinal Disorders, % [2, 4] | Gout, % [2, 4] | Metabolism And Nutrition Disorders, % [2, 4]
(6.7) %: Blood And Lymphatic System Disorders, % [2, 3] | Chronic Sinusitis, % [2, 3] | Cough, % [2, 3] | Dental Caries, % [2, 3] | Diarrhoea, % [2, 3] | Dry Eye, % [2, 3] | Eye Disorders, % [2, 3] | Headache, % [2, 3] | Leukopenia, % [2, 3] | Nasopharyngitis, % [2, 3] | Nervous System Disorders, % [2, 3] | Neutropenia, % [2, 3] | Pruritus, % [2, 3] | Respiratory, Thoracic And Mediastinal Disorders, % [2, 3] | Skin And Subcutaneous Tissue Disorders, % [2, 3]
20.0 Events/PY of MTX: Any TEAEs, Incidence Rate [2, 4]
1.0 Events/PY of MTX: Chronic Sinusitis, Incidence Rate [2, 4] | Cough, Incidence Rate [2, 4] | Dental Caries, Incidence Rate [2, 4] | Diarrhoea, Incidence Rate [2, 4] | Dry Eye, Incidence Rate [2, 4] | Eye Disorders, Incidence Rate [2, 4] | Headache, Incidence Rate [2, 4] | Leukopenia, Incidence Rate [2, 4] | Nasopharyngitis, Incidence Rate [2, 4] | Nervous System Disorders, Incidence Rate [2, 4] | Neutropenia, Incidence Rate [2, 4] | Pruritus, Incidence Rate [2, 4] | Respiratory, Thoracic And Mediastinal Disorders, Incidence Rate [2, 4] | Skin And Subcutaneous Tissue Disorders, Incidence Rate [2, 4]
1.8 Events/PY of MTX: Abdominal Discomfort, Incidence Rate [2, 3] | Blood And Lymphatic System Disorders, Incidence Rate [2, 3] | Nausea, Incidence Rate [2, 3] | Infections And Infestations, Incidence Rate ([2]; human, in vivo, 4 weeks)
18.2 Events/PY of MTX: Any TEAEs, Incidence Rate [2, 3]
2.0 Events/PY of MTX: Abdominal Discomfort, Incidence Rate [2, 4] | Blood And Lymphatic System Disorders, Incidence Rate [2, 4] | Infections And Infestations, Incidence Rate [2, 4] | Nausea, Incidence Rate [2, 4]
tolerated: tolerability of MTX ([2]; oral 15 mg/week, all patients)
(7.1) %: Blood And Lymphatic System Disorders, % [2, 4] | Chronic Sinusitis, % [2, 4] | Cough, % [2, 4] | Dental Caries, % [2, 4] | Diarrhoea, % [2, 4] | Dry Eye, % [2, 4] | Eye Disorders, % [2, 4] | Headache, % [2, 4] | Leukopenia, % [2, 4] | Nasopharyngitis, % [2, 4] | Nervous System Disorders, % [2, 4] | Neutropenia, % [2, 4] | Pruritus, % [2, 4] | Respiratory, Thoracic And Mediastinal Disorders, % [2, 4] | Skin And Subcutaneous Tissue Disorders, % [2, 4]
(71.4) %: Any TEAEs, % [2, 4]
